In the NIST ThermoML archive (doi:10.1021/je300590v):

Test: xn = mol fraction of the nth substance listed
Settings: Vibrating tube method

[Ar] [argon] + O=C=O
mass density [kg/m3]
Settings | x2 = 0.9276 | x2 = 0.9605
273.15 K, 1000 kPa, Gas | – | 22.5
273.15 K, 1001 kPa, Gas | 21.2 | –
273.15 K, 2000 kPa, Gas | – | 46.1
273.15 K, 2001 kPa, Gas | 44.2 | –
273.15 K, 3000 kPa, Gas | – | 75.5
273.15 K, 3001 kPa, Gas | 72.9 | –
273.15 K, 3600 kPa, Gas | – | 106.3
273.15 K, 3800 kPa, Gas | 104.5 | –
273.15 K, 4901 kPa, Liquid | – | 893.5
273.15 K, 5001 kPa, Liquid | – | 894.8
273.15 K, 5900 kPa, Liquid | 881.4 | –
273.15 K, 6000 kPa, Liquid | 880.2 | –
273.15 K, 6001 kPa, Liquid | – | 905.7
273.15 K, 7000 kPa, Liquid | – | 915.5
273.15 K, 7001 kPa, Liquid | 886.5 | –
273.15 K, 8001 kPa, Liquid | 898 | 924
273.15 K, 9001 kPa, Liquid | 907.8 | –
273.15 K, 9002 kPa, Liquid | – | 932.1
273.15 K, 10001 kPa, Liquid | 917.3 | –
273.15 K, 10002 kPa, Liquid | – | 939.5
273.15 K, 11001 kPa, Liquid | 925.5 | –
273.15 K, 11002 kPa, Liquid | – | 946.4
273.15 K, 12000 kPa, Liquid | 933.4 | 952.9
273.15 K, 13000 kPa, Liquid | 940.6 | 959.1
273.15 K, 14000 kPa, Liquid | – | 965
273.15 K, 14002 kPa, Liquid | 947.4 | –
273.15 K, 15000 kPa, Liquid | 953.8 | –
273.15 K, 15001 kPa, Liquid | – | 970.6
273.15 K, 16001 kPa, Liquid | 959.9 | 975.9
273.15 K, 17000 kPa, Liquid | 965.7 | –
273.15 K, 17002 kPa, Liquid | – | 981
273.15 K, 18001 kPa, Liquid | 971.2 | 986
273.15 K, 19001 kPa, Liquid | 976.5 | –
273.15 K, 19003 kPa, Liquid | – | 990.8
273.15 K, 20000 kPa, Liquid | 981.5 | –
273.15 K, 20001 kPa, Liquid | – | 995.3
283.15 K, 1001 kPa, Gas | 20.1 | 20.9
283.15 K, 2000 kPa, Gas | 42.2 | 43.1
283.15 K, 3001 kPa, Gas | 68.4 | 69.6
283.15 K, 4000 kPa, Gas | – | 104.2
283.15 K, 4001 kPa, Gas | 101.2 | –
283.15 K, 4701 kPa, Gas | – | 144.6
283.15 K, 5000 kPa, Gas | 151.6 | –
283.15 K, 5010 kPa, Gas | 153 | –
283.15 K, 5060 kPa, Gas | 161.6 | –
283.15 K, 6000 kPa, Liquid | – | 827.6
283.15 K, 7001 kPa, Liquid | – | 844.5
283.15 K, 7301 kPa, Liquid | 801.8 | –
283.15 K, 8001 kPa, Liquid | 816.3 | 859.1
283.15 K, 9001 kPa, Liquid | 833.9 | 871.9
283.15 K, 10001 kPa, Liquid | 848.6 | 883.2
283.15 K, 11001 kPa, Liquid | 861.6 | 893.1
283.15 K, 12001 kPa, Liquid | 873 | 902.4
283.15 K, 13000 kPa, Liquid | – | 910.9
283.15 K, 13002 kPa, Liquid | 883.5 | –
283.15 K, 14000 kPa, Liquid | 892.6 | –
283.15 K, 14001 kPa, Liquid | – | 918.7
283.15 K, 15001 kPa, Liquid | 901.4 | –
283.15 K, 15003 kPa, Liquid | – | 926
283.15 K, 16001 kPa, Liquid | 909.4 | 932.8
283.15 K, 17000 kPa, Liquid | – | 939.4
283.15 K, 17001 kPa, Liquid | 916.9 | –
283.15 K, 18000 kPa, Liquid | 924.1 | 945.6
283.15 K, 19001 kPa, Liquid | 930.8 | –
283.15 K, 19002 kPa, Liquid | – | 951.6
283.15 K, 20001 kPa, Liquid | 937.2 | –
283.15 K, 20003 kPa, Liquid | – | 957.3
293.15 K, 1000 kPa, Gas | 19.9 | –
293.15 K, 1001 kPa, Gas | – | 20.4
293.15 K, 2000 kPa, Gas | – | 41
293.15 K, 2001 kPa, Gas | 40.6 | –
293.15 K, 3000 kPa, Gas | 64.4 | –
293.15 K, 3001 kPa, Gas | – | 65
293.15 K, 4000 kPa, Gas | 92.6 | –
293.15 K, 4001 kPa, Gas | – | 94.2
293.15 K, 5000 kPa, Gas | 128.2 | –
293.15 K, 5001 kPa, Gas | – | 132.6
293.15 K, 6000 kPa, Gas | – | 198
293.15 K, 6001 kPa, Gas | 179 | –
293.15 K, 6601 kPa, Gas | 253.1 | –
293.15 K, 7151 kPa, Liquid | – | 728.4
293.15 K, 8002 kPa, Liquid | – | 765.2
293.15 K, 8201 kPa, Liquid | 680.3 | –
293.15 K, 9001 kPa, Liquid | 726.1 | 790.8
293.15 K, 10001 kPa, Liquid | 760.3 | 811.1
293.15 K, 11001 kPa, Liquid | 785 | 827.5
293.15 K, 12000 kPa, Liquid | – | 841.6
293.15 K, 12002 kPa, Liquid | 804.5 | –
293.15 K, 13000 kPa, Liquid | – | 853.5
293.15 K, 13003 kPa, Liquid | 820.2 | –
293.15 K, 14001 kPa, Liquid | – | 864.3
293.15 K, 14002 kPa, Liquid | 834.1 | –
293.15 K, 15000 kPa, Liquid | 846.1 | –
293.15 K, 15001 kPa, Liquid | – | 874.3
293.15 K, 16001 kPa, Liquid | 857.1 | –
293.15 K, 16002 kPa, Liquid | – | 883.4
293.15 K, 17002 kPa, Liquid | 867.1 | 891.9
293.15 K, 18000 kPa, Liquid | 876.3 | –
293.15 K, 18001 kPa, Liquid | – | 899.7
293.15 K, 19001 kPa, Liquid | 884.9 | 906.9
293.15 K, 20001 kPa, Liquid | 892.9 | 913.8
